Literature values, collected in patent publication US20180015074A1, “USE OF MTOR INHIBITORS TO PREVENT AND REGRESS EDHESIONS AND FIBROSIS” (THE BOARD OF REGENTS OF THE UNIVERSITY OF TEXAS SYSTEM, priority 2015, published 2018).
Like-named read-outs stand apart in the source and are kept apart here.

Legend:
post-surgical adhesions = details: daily IP injection immediately following surgery, rat
[1] = test system: wound strength in the intestine and abdominal fascia

Compound: CO[C@H]1C[C@@H]2CC[C@@H](C)[C@@](O)(O2)C(=O)C(=O)N2CCCC[C@H]2C(=O)O[C@H]([C@H](C)C[C@@H]2CC[C@@H](O)[C@H](OC)C2)CC(=O)[C@H](C)/C=C(\C)[C@@H](O)[C@@H](OC)C(=O)[C@H](C)C[C@H](C)/C=C/C=C/C=C/1C [rapamycin, (3S,6R,7E,9R,10R,12R,14S,15E,17E,19E,21S,23S,26R,27R,34aS)-9,10,12,13,14,-21,22,23,24,25,26,27,32,33,34,34a-hexadecahydro-9,27-dihydroxy-3-[(1R)-2-[-(1S,3R,4R)-4-hydroxy-3-methoxycyclohexyl]-1-methylethyl]-10,21-dimethoxy-6,8,12,14,20,26-hexamethyl-23,27-epoxy-3H-pyrido[2,1-c][1,4]oxaazacyclohent-ria-contine-1,5,11,28,29(4H,6H,31H)-pentone]
- wound infections (post-surgical adhesions): higher rate of wound infections
- wound strength ([1]; administration delayed 2-4 days post-surgery): ameliorated this loss
- wound strength ([1]; administration immediately following surgery): serious loss of wound strength
